Test results taken from ChEMBL document CHEMBL1201862, “PubChem BioAssay data set” (2004).
Activity calls are given as the source filed them.

Assays:
[1] = tested on: P388/ADR; experiment: cells; type: functional; conditions: Mus musculus
[2] = tested on: SN12K1; experiment: cells; type: functional; conditions: Homo sapiens
[3] = tested on: P388; experiment: cells; type: functional; conditions: Mus musculus
[4] = inhibitors of intracellular T. cruzi replication, confirmation, NIH3T3 host cells, beta-gal luminescence (AID 2044); type: functional, cell-based;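 note: intracellular parasites grown in NIH/3T3 mouse fibroblasts as host cells; luminescent beta-galactosidase reporter signal from transgenic T. cruzi replicating inside host cells; inhibitors lower the luminescence signal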
[5] = cytotoxicity toward NIH3T3 fibroblasts, dose response, counter-screen, cell-based, ATP luminescence, mouse fibroblasts (AID 2010); type: functional; conditions: NIH3T3;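 note: cells exposed to compound for about 90 hours before reading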
[6] = target: T1, Protein skinhead-1 (Caenorhabditis elegans, UniProt P34707); type: functional
T1 sequence (P34707 whole entry): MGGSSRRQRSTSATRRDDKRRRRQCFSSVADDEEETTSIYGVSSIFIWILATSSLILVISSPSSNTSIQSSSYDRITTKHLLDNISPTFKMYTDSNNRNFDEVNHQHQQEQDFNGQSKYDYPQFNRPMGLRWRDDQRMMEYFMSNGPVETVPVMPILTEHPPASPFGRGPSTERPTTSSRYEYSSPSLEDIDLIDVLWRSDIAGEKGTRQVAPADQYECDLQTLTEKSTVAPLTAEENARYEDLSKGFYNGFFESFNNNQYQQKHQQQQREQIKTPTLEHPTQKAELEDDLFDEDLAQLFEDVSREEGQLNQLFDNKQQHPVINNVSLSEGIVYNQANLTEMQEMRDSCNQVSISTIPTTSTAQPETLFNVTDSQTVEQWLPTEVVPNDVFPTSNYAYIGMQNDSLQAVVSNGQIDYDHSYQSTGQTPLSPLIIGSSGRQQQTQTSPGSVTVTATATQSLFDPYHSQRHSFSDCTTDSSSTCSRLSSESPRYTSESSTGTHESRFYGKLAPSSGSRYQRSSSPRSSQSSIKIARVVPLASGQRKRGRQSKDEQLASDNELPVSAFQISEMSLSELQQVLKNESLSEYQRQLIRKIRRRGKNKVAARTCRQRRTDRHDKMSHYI

[7] = target: Cytochrome P450 2D6 (Homo sapiens, UniProt P10635);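 note: CYP2D6 member of a cytochrome P450 panel assay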
[8] = target: T2, Cytochrome P450 1A2 (Homo sapiens, UniProt P05177);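 note: PubChem cytochrome P450 panel assay, CYP1A2 panel member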
T2 sequence (P05177 whole entry): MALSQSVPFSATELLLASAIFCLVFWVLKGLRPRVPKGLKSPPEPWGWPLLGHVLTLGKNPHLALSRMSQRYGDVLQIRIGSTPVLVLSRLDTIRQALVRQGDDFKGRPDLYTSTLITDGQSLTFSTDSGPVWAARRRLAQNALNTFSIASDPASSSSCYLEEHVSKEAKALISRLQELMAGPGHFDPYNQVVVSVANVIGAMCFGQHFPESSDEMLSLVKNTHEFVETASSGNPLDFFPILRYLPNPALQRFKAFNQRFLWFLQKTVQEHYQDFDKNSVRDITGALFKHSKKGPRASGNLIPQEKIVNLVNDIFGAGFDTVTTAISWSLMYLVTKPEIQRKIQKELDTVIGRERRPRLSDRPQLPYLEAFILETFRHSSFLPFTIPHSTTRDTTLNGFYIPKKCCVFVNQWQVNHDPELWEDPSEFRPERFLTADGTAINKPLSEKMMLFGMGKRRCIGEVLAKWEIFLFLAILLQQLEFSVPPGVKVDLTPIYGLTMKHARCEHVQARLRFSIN

[9] = target: Cytochrome P450 2C9 (Homo sapiens, UniProt P11712)
[10] = growth suppression of PTEN-null colon cells, dose response, cell-based, HCT116 PTEN knockout (AID 1047); type: functional;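 note: HCT116 colon tumor cells with PTEN knocked out; cells exposed to compound for 60 hours before readout; potency for loss of cell viability measured by luminescence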
[11] = growth suppression of beta-catenin-knockout colon cells, dose response, cell-based, HCT116, human colon tumor (AID 1045); type: functional;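 note: HCT116 colon tumor cells with beta catenin knocked out; cells exposed to compound for 60 hours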
[12] = target: Luciferin 4-monooxygenase (Photinus pyralis, UniProt P08659); experiment: firefly luciferase enzyme inhibitors, dose response, biochemical, luminescence (AID 1891)
[13] = Luminescence Cell-Based Dose Confirmation HTS to Identify Inhibitors of Platelet Dense Granule Release. [Related pubchem assays: 1663 (Primary HTS), 1678 (Summary of Project)]; type: functional
[14] = tested on: Streptococcus sp. 'group A'; experiment: growth inhibition of control SK(-) GAS strain, dose response, counter-screen for streptokinase expression inhibitor project, luminescence, kanamycin, BacTiterGlo, confirmation (AID 1900); type: functional, organism-based; conditions: Streptococcus sp. 'group A'
[15] = tested on: Streptococcus; experiment: Group A Streptococcus viability loss, dose response, counter-screen for streptokinase expression inhibitor project, luminescence, BacTiterGlo (AID 1915); type: functional, organism-based; conditions: Streptococcus;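 note: potency for reduction of bacterial viability or growth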
[16] = Luminescence Cell-Based Dose Retest to Confirm Inhibitors of Cancer Stem Cells. [Related pubchem assays (depositor defined):AID2717, AID2721]; type: functional, Homo sapiens; conditions: Homo sapiens
[17] = THP-1 cell cytotoxicity, dose response, cytotoxicity control for non-replicating M. tuberculosis project (AID 489025); type: functional
[18] = Vero E6 cell cytotoxicity, dose response, cytotoxicity control for non-replicating M. tuberculosis project, secondary assay (AID 492998); type: functional, VeroE6; conditions: Vero C1008
[19] = cells; type: functional
[20] = target: T3, Corticotropin-releasing factor receptor 2/Corticotropin-releasing factor-binding protein (Homo sapiens, UniProt P24387+Q13324); experiment: Dose Response confirmation of uHTS hits for small molecule antagonists of the CRF-binding protein and CRF-R2 receptor complex.; type: functional; conditions: read-out: IC50_Mean
T3 sequence (Q13324 whole entry): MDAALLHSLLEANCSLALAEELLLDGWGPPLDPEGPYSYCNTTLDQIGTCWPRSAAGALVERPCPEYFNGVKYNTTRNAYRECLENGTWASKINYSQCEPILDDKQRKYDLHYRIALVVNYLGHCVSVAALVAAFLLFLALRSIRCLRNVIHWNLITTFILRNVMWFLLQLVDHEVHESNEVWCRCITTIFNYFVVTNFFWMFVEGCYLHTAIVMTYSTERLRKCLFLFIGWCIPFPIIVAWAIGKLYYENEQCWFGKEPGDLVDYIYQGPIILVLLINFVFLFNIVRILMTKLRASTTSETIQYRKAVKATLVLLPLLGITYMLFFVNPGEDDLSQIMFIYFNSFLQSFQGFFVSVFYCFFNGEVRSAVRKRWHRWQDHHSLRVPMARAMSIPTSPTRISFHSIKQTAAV
T3 sequence (P24387 whole entry): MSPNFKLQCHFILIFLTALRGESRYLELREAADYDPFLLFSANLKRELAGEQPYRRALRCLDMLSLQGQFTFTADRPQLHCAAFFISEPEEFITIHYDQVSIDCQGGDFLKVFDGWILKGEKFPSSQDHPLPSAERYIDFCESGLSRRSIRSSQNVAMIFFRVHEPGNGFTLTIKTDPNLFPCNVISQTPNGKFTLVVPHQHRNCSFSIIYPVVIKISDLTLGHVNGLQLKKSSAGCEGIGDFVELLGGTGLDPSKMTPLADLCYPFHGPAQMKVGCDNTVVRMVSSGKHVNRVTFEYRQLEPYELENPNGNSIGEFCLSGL

[21] = target: T3, Corticotropin-releasing factor receptor 2/Corticotropin-releasing factor-binding protein; experiment: activators of CRF receptor 2 with binding protein – uHTS hits, confirmation (AID 602473); type: functional; conditions: read-out: EC50_Mean
[22] = target: Cytochrome P450 2C19 (Homo sapiens, UniProt P33261); experiment: Cytochrome panel assay with activity outcomes. Panel member name: p450-cyp2c19 Compounds with AC50 equal or less than 10 uM are considered active; type: functional; conditions: read-out: AC50
[23] = target: Genome polyprotein (dengue virus type 2, UniProt P29990); experiment: Dengue-2 NS5 methyltransferase inhibitors, primary screen, biochemical, confirmation dose response (AID 588689); type: functional
Sequence of Genome polyprotein (P29990 2492-3391 limits assumed): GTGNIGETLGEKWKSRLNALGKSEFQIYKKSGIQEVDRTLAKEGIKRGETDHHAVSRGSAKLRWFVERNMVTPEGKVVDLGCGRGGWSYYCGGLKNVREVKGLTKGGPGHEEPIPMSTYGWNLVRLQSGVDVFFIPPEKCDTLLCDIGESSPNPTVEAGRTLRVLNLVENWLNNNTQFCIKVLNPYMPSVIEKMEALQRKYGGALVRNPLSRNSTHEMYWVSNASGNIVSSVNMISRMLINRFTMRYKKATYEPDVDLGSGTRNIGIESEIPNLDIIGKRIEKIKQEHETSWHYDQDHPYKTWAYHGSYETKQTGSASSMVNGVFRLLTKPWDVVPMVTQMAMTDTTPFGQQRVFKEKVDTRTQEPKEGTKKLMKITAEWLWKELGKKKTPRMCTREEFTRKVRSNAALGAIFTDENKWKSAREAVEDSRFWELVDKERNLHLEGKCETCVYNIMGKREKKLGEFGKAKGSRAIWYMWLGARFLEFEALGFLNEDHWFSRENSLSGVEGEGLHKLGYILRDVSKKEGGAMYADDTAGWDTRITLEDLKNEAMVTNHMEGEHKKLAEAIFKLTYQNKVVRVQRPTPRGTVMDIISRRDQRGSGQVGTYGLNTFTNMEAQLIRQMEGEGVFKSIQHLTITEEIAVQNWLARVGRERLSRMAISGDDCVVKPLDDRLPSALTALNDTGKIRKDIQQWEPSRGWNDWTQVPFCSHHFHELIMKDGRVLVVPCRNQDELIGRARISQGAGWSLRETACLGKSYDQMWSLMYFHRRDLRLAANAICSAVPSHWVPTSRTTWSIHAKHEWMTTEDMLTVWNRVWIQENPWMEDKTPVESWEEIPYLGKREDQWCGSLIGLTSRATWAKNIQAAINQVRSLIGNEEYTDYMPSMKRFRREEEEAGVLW

Sequence of Cytochrome P450 2C9 (P11712 whole entry): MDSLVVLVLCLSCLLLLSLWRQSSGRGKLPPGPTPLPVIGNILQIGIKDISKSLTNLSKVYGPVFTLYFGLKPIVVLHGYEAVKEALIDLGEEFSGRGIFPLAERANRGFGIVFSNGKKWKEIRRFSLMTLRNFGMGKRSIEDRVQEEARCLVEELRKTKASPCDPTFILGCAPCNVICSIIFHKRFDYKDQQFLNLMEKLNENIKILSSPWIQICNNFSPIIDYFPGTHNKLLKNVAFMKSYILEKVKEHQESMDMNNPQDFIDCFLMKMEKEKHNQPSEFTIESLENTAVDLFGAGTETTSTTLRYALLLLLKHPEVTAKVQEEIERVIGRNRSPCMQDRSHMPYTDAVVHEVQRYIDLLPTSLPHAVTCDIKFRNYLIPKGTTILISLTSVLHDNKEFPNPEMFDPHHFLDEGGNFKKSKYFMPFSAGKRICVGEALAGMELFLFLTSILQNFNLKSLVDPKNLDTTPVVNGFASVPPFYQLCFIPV
Sequence of Cytochrome P450 2D6 (P10635 whole entry): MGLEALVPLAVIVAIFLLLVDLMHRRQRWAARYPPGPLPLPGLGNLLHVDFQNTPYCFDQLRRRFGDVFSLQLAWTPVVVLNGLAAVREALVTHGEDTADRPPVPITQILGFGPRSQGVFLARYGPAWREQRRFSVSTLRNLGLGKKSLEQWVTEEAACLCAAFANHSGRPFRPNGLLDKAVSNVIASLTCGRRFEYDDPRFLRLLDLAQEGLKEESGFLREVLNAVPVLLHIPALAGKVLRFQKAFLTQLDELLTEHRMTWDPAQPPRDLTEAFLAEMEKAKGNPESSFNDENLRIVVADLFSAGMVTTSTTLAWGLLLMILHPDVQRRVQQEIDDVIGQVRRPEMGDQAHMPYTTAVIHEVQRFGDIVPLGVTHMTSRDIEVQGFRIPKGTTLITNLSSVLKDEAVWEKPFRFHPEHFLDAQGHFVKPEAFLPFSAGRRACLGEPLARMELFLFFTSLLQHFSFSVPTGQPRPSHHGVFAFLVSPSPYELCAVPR
Sequence of Cytochrome P450 2C19 (P33261 whole entry): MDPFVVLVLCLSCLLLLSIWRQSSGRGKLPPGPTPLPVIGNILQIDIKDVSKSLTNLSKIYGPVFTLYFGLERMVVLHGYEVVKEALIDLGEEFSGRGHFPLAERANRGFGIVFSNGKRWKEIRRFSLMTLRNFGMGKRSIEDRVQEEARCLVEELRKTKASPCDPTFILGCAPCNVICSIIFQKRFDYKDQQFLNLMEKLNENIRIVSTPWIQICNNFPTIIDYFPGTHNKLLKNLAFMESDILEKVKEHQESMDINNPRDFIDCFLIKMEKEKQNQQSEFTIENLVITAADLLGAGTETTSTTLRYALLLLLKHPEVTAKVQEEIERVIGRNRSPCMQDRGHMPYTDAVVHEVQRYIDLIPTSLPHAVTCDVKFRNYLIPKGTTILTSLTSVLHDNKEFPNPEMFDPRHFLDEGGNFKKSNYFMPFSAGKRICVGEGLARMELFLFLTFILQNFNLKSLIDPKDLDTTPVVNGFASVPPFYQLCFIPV
Sequence of Luciferin 4-monooxygenase (P08659 whole entry): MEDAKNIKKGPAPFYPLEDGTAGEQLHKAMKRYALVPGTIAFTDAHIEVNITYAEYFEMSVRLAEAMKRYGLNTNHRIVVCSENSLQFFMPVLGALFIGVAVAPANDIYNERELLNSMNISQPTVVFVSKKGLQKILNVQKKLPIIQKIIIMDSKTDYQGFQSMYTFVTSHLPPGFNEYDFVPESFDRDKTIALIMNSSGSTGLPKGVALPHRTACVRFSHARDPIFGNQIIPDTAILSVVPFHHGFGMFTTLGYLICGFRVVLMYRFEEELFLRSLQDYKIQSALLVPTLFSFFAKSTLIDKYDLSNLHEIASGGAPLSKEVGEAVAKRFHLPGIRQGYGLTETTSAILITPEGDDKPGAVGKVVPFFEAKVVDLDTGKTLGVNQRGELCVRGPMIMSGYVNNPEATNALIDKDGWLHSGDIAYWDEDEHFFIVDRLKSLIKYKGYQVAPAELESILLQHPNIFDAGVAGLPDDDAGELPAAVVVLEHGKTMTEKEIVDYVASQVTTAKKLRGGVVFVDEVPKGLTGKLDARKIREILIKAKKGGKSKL

## COc1cccc2c1C(=O)c1c(O)c3c(c(O)c1C2=O)C[C@](O)(C(=O)CO)CC3OC1CC(N)C(OC2CCCCO2)C(C)O1 (stereo partly specified)
[1]
  GI50: 3.14 µM (inactive)
[2]
  GI50: < 0.01 µM (active)
[3]
  GI50: < 0.01 µM (active)

## O=C(/N=C1/N=C2C=CC(Br)=CN2Cc2ccccc21)c1ccc([N+](=O)[O-])cc1[N+](=O)[O-]
[4]
  EC50: 1.39 µM (active)
[5]
  EC50: > 60 µM (not active)
[6]
  IC50: 28.3 µM (active)

## CN(CC(=O)Nc1cccc2c1CCCC2)S(=O)(=O)c1ccc(Br)cc1
[7]
  AC50: 3.16 µM (inconclusive)
[8]
  AC50: 10 µM (inconclusive)
[9]
  AC50: inconclusive

## CC(Sc1nc(-c2ccccc2)cc(C(F)(F)F)n1)C(=O)Nc1ccc2c(c1)OCO2 (stereo unspecified)
[10]
  EC50: 19.3 µM (active)
[11]
  EC50: 24.6 µM (active)

## CN(C(=O)Cn1nnc(-c2cccc(C(F)(F)F)c2)n1)C1CCCCC1
[12]
  EC50: > 112 µM (not active)
[13]
  EC50: > 112 µM (not active)
[9]
  AC50: inconclusive

## Clc1ccc2c(N/N=C/c3ccc(Br)cc3)ccnc2c1
[14]
  EC50: 2.54 µM (active)
[10]
  EC50: 15.5 µM (active)
[11]
  EC50: 9.32 µM (active)
[15]
  EC50: 3.89 µM (active)
[16]
  AC50: 3.79 µM (active)

## Nc1ncnc2c(C3OC(CO)C(O)C3O)n[nH]c12 (stereo unspecified)
[1]
  GI50: 5.6 µM (inactive)
[2]
  GI50: 0.176 µM (active)
[3]
  GI50: 10.2 µM (inactive)

## C[C@H](NC(=O)c1[nH]cnc1C(=O)Nc1ccccc1)C(=O)OC(C)(C)C
[17]
  CC50: > 40 µM (active)
[18]
  CC50: > 20 µM (active)
[19]
  IC50: 8.07 µM (active)

## CCc1ccc(NC(=O)CSc2nc3cc(C(=O)OC)ccc3c(=O)n2CC2CCCO2)cc1 (stereo unspecified)
[10]
  EC50: 27.4 µM (active)
[11]
  EC50: 25.2 µM (active)

## COc1ccc(/C=C\c2cc(OC)c(OC)c(OC)c2)c(O)c1O [COMBRETASTATIN A-1]
[1]
  GI50: 0.139 µM (active)
[2]
  GI50: 0.05 µM (active)
[3]
  GI50: 0.0525 µM (active)

## CCOC(=O)C(/C=N/c1ncccc1C)=C(/O)OCC
[9]
  AC50: inconclusive

## Cc1noc(C)c1-c1cc(NCc2cccnc2)ncn1
[9]
  AC50: inconclusive

## O=C1NC2(CCCCC2)C(=O)N1CCN(CCCl)CCCl [SPIROMUSTINE]
[1]
  GI50: 29.6 µM (inactive)
[2]
  GI50: 132 µM (inactive)
[3]
  GI50: 30.2 µM (inactive)

## Cc1ncsc1C(=O)N1CCCC(C(=O)c2ccc3ccccc3c2)C1 (stereo unspecified)
[20]
  IC50: > 47.1 µM (inactive)
[21]
  EC50: > 53 µM (inactive)

## O=c1[nH]c2ccc(Cl)cc2[nH]1
[20]
  IC50: > 47.1 µM (inactive)
[21]
  EC50: > 53 µM (inactive)

## FC(F)(F)c1ccccc1-c1ccc2ncnc(NC3CCNCC3)c2c1
[8]
  AC50: 20 µM (inconclusive)
[9]
  AC50: inconclusive

## NC1=NC(c2ccccc2)CC(c2cc(Cl)cc(Br)c2O)=N1 (stereo unspecified)
[1]
  GI50: 3.87 µM (inactive)
[2]
  GI50: 13.6 µM (inactive)
[3]
  GI50: 2.9 µM (inactive)

## C(=N/NC1=NCCN1)/c1c2ccccc2c(/C=N\NC2=NCCN2)c2ccccc12
[1]
  GI50: 14.6 µM (inactive)
[2]
  GI50: 0.0284 µM (active)
[3]
  GI50: 0.000861 µM (active)

## CCC1=CC2CN3CCc4c([nH]c5ccccc45)C(C(=O)OC)(C2)C13 (stereo unspecified)
[1]
  GI50: 30.1 µM (inactive)
[2]
  GI50: 17.7 µM (inactive)
[3]
  GI50: 21 µM (inactive)

## Cc1cc(C(=O)N/N=C/c2cccc([N+](=O)[O-])c2)c(C)o1
[22]
  AC50: 22.4 µM (inconclusive)
[9]
  AC50: inconclusive

## CCOC(=O)Nc1nc(-c2ccc(Cl)cc2Cl)cs1
[6]
  IC50: 21.4 µM (active)

## c1csc(-c2nc3nc4ccccc4nc3n2Cc2ccc3c(c2)OCO3)c1
[10]
  EC50: 48.7 µM (active)
[11]
  EC50: 45.5 µM (active)

## N#Cc1ccc(-c2nc3c4ccccc4ccn3c2Cc2ccccc2C(F)(F)F)cc1
[6]
  IC50: > 100 µM (inactive)

## COC(=O)c1ccc(Cl)c(NC(=O)c2ccc(-c3ccccc3)cc2)c1
[9]
  AC50: inconclusive

## O=C1COc2ccccc2CN1
[9]
  AC50: inconclusive

## CCOC(=O)c1c(C)[nH]c(C(=O)COC(=O)c2oc3ccc(OC)cc3c2C)c1C
[6]
  IC50: > 100 µM (inactive)

## O=C(O)CN1C(=O)/C(=C\c2cccc(OCc3ccc(Cl)cc3)c2)SC1=S
[23]
  IC50: 39.5 µM (active)

## Cc1ccccc1CN1C(=O)C(O)(CC(=O)c2ccncc2)c2ccccc21 (stereo unspecified)
[10]
  EC50: 7.98 µM (active)
[11]
  EC50: 9.54 µM (active)

## CN(C)CCCNC(=O)C[C@H]1C[C@H](C(=O)N2CCOCC2)[C@@]2(C)c3[nH]c4ccc(Cl)cc4c3CCN2C1=O
[20]
  IC50: > 47.1 µM (inactive)
[21]
  EC50: > 53 µM (inactive)

## Cc1cccc(C)c1NC(=O)Cc1cccs1
[20]
  IC50: > 47.1 µM (inactive)
[21]
  EC50: > 53 µM (inactive)

## NC(=O)NO [HYDROXYUREA]
[1]
  GI50: 59.3 µM (inactive)
[2]
  GI50: 173 µM (inactive)
[3]
  GI50: 69.8 µM (inactive)

## CC(C)Cn1cc(C(=O)N2CCC(C)CC2)c2c3ccccc3n(C)c2c1=O
[20]
  IC50: > 47.1 µM (inactive)
[21]
  EC50: > 53 µM (inactive)

## O=C(O)Cc1cccc2c(=O)cc(-c3ccccc3)oc12 [MITOFLAXONE]
[1]
  GI50: > 79.3 µM (inactive)
[2]
  GI50: > 250 µM (inactive)
[3]
  GI50: 93.8 µM (inactive)

## Cc1ccn2c(NC3CCCC3)c(-c3ccccn3)nc2c1
[14]
  EC50: 3.14 µM (active)
[4]
  EC50: 2.06 µM (active)
[5]
  EC50: > 60 µM (not active)
[15]
  EC50: 13.3 µM (active)
[17]
  CC50: 17.5 µM (active)
[18]
  CC50: 10.1 µM (active)
[19]
  IC50: 4.71 µM (active)
